Measurements reported in US5160483A, “Fragment of TNF-α for promoting wound healing” (The University of Tennessee Research Corporation, priority 1991, dated 1992).
Read-outs that look alike come from different tables or passages of the source.

Key:
[1] = tested on: fibroblasts; test: Chemotaxis of fibroblasts in chemotaxis chambers, fragment in lower compartment (FIG. 1); format: cell-based; conditions: fragment in PBS in lower compartment of chemotaxis chambers
Experimental: (§1) Solutions of varying concentrations of the fragment of TNF-α comprising amino acids 31 through 68 SEQ ID No.: 1 in phosphate buffered saline (PBS) were added to the lower compartment of chemotaxis chambers. The number of fibroblasts migrating to the lower compartment was counted. The response curve is bell-shaped, with a maximum at 100 nM. An analysis of the effects of varying concentration gradients of the protein fragment (a Zigmond-Hirsch checkerboard analysis) was performed by adding different concentrations of the fragment to the upper and/or lower compartments of a chemotaxis chamber. The number of fibroblasts migrating to the lower surface of each filter was counted.

[2] = tested on: fibroblasts; test: Zigmond-Hirsch checkerboard analysis of fibroblast migration in chemotaxis chamber; format: cell-based
Experimental: as §1
The fibroblasts migrate from the upper chamber to the lower chamber since there is very little of the fragment in the upper chamber and there is quite a large concentration of the fragment in the lower chamber. This simulates the condition at a wound site where there has been an application of the fragment to the wound. The concentration of the fragment in the surrounding tissue will be quite low compared to the concentration at the wound site. Therefore, the fibroblasts will migrate from the area of low concentration of the fragment to the area of high concentration.

[3] = tested on: fibroblasts and monocytes; test: Intradermal injection in guinea pigs; format: in vivo
Description: The composition accomplishes this without the problems attendant on the previously developed materials. The fragment includes amino acids 31 through 68 SEQ ID No.: 1 of TNF-α which has the sequence: [drawing 1]

[4] = Cytotoxicity
[5] = known property of the complete protein; cited from earlier work

fragment of TNF-α comprising amino acids 31 through 68 SEQ ID No.: 1: 38-residue synthetic polypeptide, amino acids 31 through 68 of TNF-α (SEQ ID No.: 1), about 3,800 Da (RRANALLANGVELRDNQLVVPSEGLYLIYSQVLFKGQG; Tumor necrosis factor, soluble form; UniProt P01375 107-144, looked up, fragment)
concentration at the maximum of the bell-shaped fibroblast migration response curve [1]: 100 nM | number of fibroblasts migrating to the lower surface of each filter ([2]; upper compartment 0 nM, lower compartment 21 nM): 31 ± 4 | number of fibroblasts migrating to the lower surface of each filter ([2]; upper compartment 0 nM, lower compartment 41 nM): 57 ± 3 | number of fibroblasts migrating to the lower surface of each filter ([2]; upper compartment 0 nM, lower compartment 164 nM): 73 ± 4 | number of fibroblasts migrating to the lower surface of each filter ([2]; upper compartment 0 nM, lower compartment 329 nM): 86 ± 13 | number of fibroblasts migrating to the lower surface of each filter ([2]; upper compartment 21 nM, lower compartment 0 nM): 20 ± 6 | number of fibroblasts migrating to the lower surface of each filter ([2]; upper compartment 21 nM, lower compartment 21 nM): 9 ± 1 | number of fibroblasts migrating to the lower surface of each filter ([2]; upper compartment 21 nM, lower compartment 41 nM): 49 ± 7 | number of fibroblasts migrating to the lower surface of each filter ([2]; upper compartment 21 nM, lower compartment 164 nM): 46 ± 2 | number of fibroblasts migrating to the lower surface of each filter ([2]; upper compartment 21 nM, lower compartment 329 nM): 67 ± 2 | number of fibroblasts migrating to the lower surface of each filter ([2]; upper compartment 41 nM, lower compartment 0 nM): 31 ± 2 | number of fibroblasts migrating to the lower surface of each filter ([2]; upper compartment 41 nM, lower compartment 21 nM): 28 ± 5 | number of fibroblasts migrating to the lower surface of each filter ([2]; upper compartment 41 nM, lower compartment 41 nM): 26 ± 4 | number of fibroblasts migrating to the lower surface of each filter ([2]; upper compartment 41 nM, lower compartment 164 nM): 47 ± 5 | number of fibroblasts migrating to the lower surface of each filter ([2]; upper compartment 41 nM, lower compartment 329 nM): 57 ± 6 | number of fibroblasts migrating to the lower surface of each filter ([2]; upper compartment 164 nM, lower compartment 0 nM): 14 ± 2 | number of fibroblasts migrating to the lower surface of each filter ([2]; upper compartment 164 nM, lower compartment 21 nM): 11 ± 1 | number of fibroblasts migrating to the lower surface of each filter ([2]; upper compartment 164 nM, lower compartment 41 nM): 16 ± 3 | number of fibroblasts migrating to the lower surface of each filter ([2]; upper compartment 164 nM, lower compartment 164 nM): 22 ± 4 | number of fibroblasts migrating to the lower surface of each filter ([2]; upper compartment 164 nM, lower compartment 329 nM): 43 ± 3 | number of fibroblasts migrating to the lower surface of each filter ([2]; upper compartment 329 nM, lower compartment 0 nM): 16 ± 3 | number of fibroblasts migrating to the lower surface of each filter ([2]; upper compartment 329 nM, lower compartment 21 nM): 10 ± 1 | number of fibroblasts migrating to the lower surface of each filter ([2]; upper compartment 329 nM, lower compartment 41 nM): 9 ± 1 | number of fibroblasts migrating to the lower surface of each filter ([2]; upper compartment 329 nM, lower compartment 164 nM): 12 ± 2 | number of fibroblasts migrating to the lower surface of each filter ([2]; upper compartment 329 nM, lower compartment 329 nM): 8 ± 1 | type of fibroblast migration induced (checkerboard analysis) ([2]; varying concentration gradients, Table I): induced mostly chemotactic migration of fibroblasts | amount of connective tissue at the injection site [3]: increase in the amount of connective tissue at the injection site | migration of fibroblasts and monocytes into the area of the wound [3]: increased migration of fibroblasts and monocytes into the area of the wound | cytotoxicity [4]: without any showing of cytotoxicity

TNF-α
cytotoxicity [5]: known to be a cytotoxin
